Experiments:
orthotopic KPC tumor [1] = experiment: Anti-PDAC efficacy in orthotopic KPC model; assay type: in vivo, B6129SF1/J mice; conditions: Pt 2 mg/kg IV every 3 days, 3 administrations, day 17
Procedure: An efficacy study was performed by IV injection of the silicasome carrier eight days after orthotopic KPC implantation in the pancreas of B6129SF1/J mice (FIG. 3, panel D). This corresponds to beginning the treatment at a primary tumor size of 5-10 mm in the absence of macro-metastases^[21]. IV injections were repeated every 3 days for a total of 3 repeats. The control groups included animals receiving IV saline or free oxaliplatin. The tumor growth at the primary and metastatic sites was followed by IVIS bioluminescence imaging up to conclusion of the experiment on day 17 (FIG. 3, panel D, right).
KPC-luc cells (˜1×10^6) were orthotopically injected into the pancreas in mice. […] The control includes saline as well as free oxaliplatin. This dose arrangement is in agreement with the literature^[27]. Tumor-bearing mice received IV injection of the indicated therapy every 3 days for a total of 3 administrations. Before animal sacrifice (72 h post the last IV injection), the mice received intraperitoneal injection of D-luciferin, followed by ex vivo bioluminescence imaging using an IVIS imaging system. […] The H&E slides for toxicity assessment were read in a blinded fashion by an experienced veterinary pathologist.

calreticulin (CRT) = experiment: Surface CRT expression in KPC cells (immunofluorescence, flow cytometry); assay type: cell-based, murine; conditions: 500 μM, 24 h
Procedure: Surface CRT expression was visualized by immunofluorescence (IF) staining using an anti-CRT primary antibody, followed by the incubation with Alex488 conjugated secondary antibody. Briefly, ˜1.5×10^4 KPC cells were seeded into an 8-well confocal chamber slide. After 24 h, the cell culture medium was replaced with fresh medium containing the chemo agents, following which the cells were incubated for another 24 h. The cells were washed twice in cold PBS and fixed with 4% paraformaldehyde (PFA) at room temperature (r.t.) for 15 mins. After fixation, the cells were washed twice with cold PBS and blocked with 1% BSA in PBS for 0.5 h. The cells were incubated with anti-CRT primary antibody (ab2907, 1:200) in 200 μL blocking solution at 4° C. overnight, followed by washing with PBS and staining with secondary antibody (Alex488 conjugated goat anti-rabbit secondary antibody, A-11008, 1:1000) together with the nuclear dye, Hoechst 33342, at r.t. for 1 h. The cells were washed with PBS, then imaged by using a Leica SP8-MD confocal microscope under the 100× objective lens.
Surface CRT expression was measured by flow cytometry as previously described^[24a]. Briefly, 7.5×10^4 KPC cells were seeded into 24-well plates. […] After washing in cold PBS, the cells were assessed in a LSRII flow cytometer (BD Biosciences). […]

HMGB1 = HMGB1 release from KPC cells (ELISA); assay type: cell-based, murine; conditions: 500 μM, 24 h
Procedure: Surface CRT expression was measured by flow cytometry as previously described^[24a]. Briefly, 7.5×10^4 KPC cells were seeded into 24-well plates. After cell attachment, KPC cells were treated with free oxaliplatin and DACHPt (500 μM), for 24 h. The loosely attached cells were combined with trypsin-treated at adherent cells. The cells were washed in cold PBS and then stained on ice with a primary anti-CRT antibody (Abcam, ab2907, 1:140) in 200 μL BD staining buffer for 0.5 h. The cells were washed in cold PBS and stained with an […] secondary antibody (LifeScience Technologies #A21244) for 30 min on ice. After washing in cold PBS, the cells were assessed in a LSRII flow cytometer (BD Biosciences). In the same experiment, the cell culture media were spun down to collect the supernatants for HMGB1 detection by an ELISA kit (Catalog #ST51011, IBL International GmbH), according to the manufacture's instruction.

orthotopic KPC tumor [2] = experiment: Survival study in orthotopic KPC model w/wo anti-PD-1; assay type: in vivo, mice; conditions: agent alone; Pt 2 mg/kg IV, anti-PD-1 100 μg IP; Kaplan-Meier, Log Rank
Procedure: Kaplan-Meier plots were used to display the survival rate of the different animal groups (n=5-7, *p<0.05, Log Rank test).
Tumor-bearing mice were randomly assigned into 6 groups (n=5-7) and received IV injection of Pt drug formulations twice per week as designed in FIG. 6. Anti-PD-1 antibody was injected at 100 μg/animal intraperitoneally two days later after each Pt chemo injection. To assess survival rate, animals were monitored daily up to the stage of spontaneous death or approaching moribund status based on the criteria of extensive abdominal ascites, severe dehydration, significant weight loss (>20%), extreme weakness or inactivity^[4, 21, 30] The survival data were plotted as Kaplan-Meier curves, followed by statistical analysis by Log Rank testing (Mantel-Cox), using GraphPad Prism 7.00 software.

KPC cells [3] = experiment: Cytotoxicity MTS assay in KPC cells; conditions: 500 μM, 24 h
Procedure: The DACHPt silicasome was tested in a list of cancer cell lines to determine the in vitro killing effect, using a MTS assay. […] The MTS assay was conducted with free DACHPt and oxaliplatin as controls. Data are expressed as mean±SD. n=3.
The MTS assay was performed at 24 h after the treatment with oxaliplatin or DACHPt in KPC cells. Data represents mean±SD, n=3.
Cytotoxicity testing of free Pt drugs or drug-laden silicasomes was performed by using a standard MTS assay (CellTiter 96© AQueous One Solution Cell Proliferation Assay, Promega). PDAC cells were plated at a density of 5×10^3 cells per well in a 96-well plate and cultured for 24 h before the medium was replaced with fresh medium containing free OX, free DACHPt or DACHPt laden silicasome at indicated concentrations. Non-treated cells were used as control. After treatment for 48 h, the medium was replaced with 100 μL of fresh medium containing MTS solution (5:1, v/v medium/CellTiter 96© Aqueous stock solution), and the cells were further cultured at 37° C. for 1 h. The absorbance of the culture wells at 490 nm was recorded by a microplate reader (M5e, Molecular Device, USA). Wells receiving the MTS solution without cells were used as blank. The relative cell viability (%) is [(the absorption of treated well−blank)/(the absorption of control well−blank)]×100%.

[4] = PK study, plasma Pt by ICP-MS after single IV injection; conditions: Pt dose 4.95 mg/kg, one-compartment model
Procedure: IV injection of non-encapsulated oxaliplatin (at identical Pt molar dose) served as the free drug control because free DACHPt leads to drug precipitates when interacting with Cl ions in the blood^[7b]. Blood collection was performed at 5 mins, 3 h, 6 h, 24 h and 48 h after IV injection, followed by ICP-MS quantification.
The PK study was performed on 10-12-week-old healthy female B6129SF1/J mice. […] After separation of the plasma fraction, the plasma samples were digested with HCl:HNO3 3:1, v/v) in a hot-block, before replenishment in 2% HNO3 for ICP-MS analysis of the Pt content. The PK data were analyzed by PKSolver software, using a one-compartment model^[4].

[5] = Safety assessment by H&E histology of bone marrow and major organs (efficacy study)
Procedure: KPC-luc cells (˜1×10^6) were orthotopically injected into the pancreas in mice. […] The control includes saline as well as free oxaliplatin. […] Tumor-bearing mice received IV injection of the indicated therapy every 3 days for a total of 3 administrations. Before animal sacrifice (72 h post the last IV injection), the mice received intraperitoneal injection of D-luciferin, followed by ex vivo bioluminescence imaging using an IVIS imaging system. Primary tumor and major organs (e.g. sternum, heart, liver, spleen, lung and kidneys) were harvested and fixed in 10% formalin, followed by paraffin embedding and sectioning to provide 4 μm slices for histological analysis in the UCLA Translational Pathology Core Laboratory (TPCL). H&E staining was performed to look at the pathological abnormality in mice receiving different treatments. The H&E slides for toxicity assessment were read in a blinded fashion by an experienced veterinary pathologist.

KPC cells [6] = experiment: Vaccination study with chemo-induced dying KPC cells, re-challenge on contralateral side; conditions: for infiltration by CD8^+ T-cells / number of Foxp3^+ regulatory T cell (Treg) / increase in CD8^+/Tregs cell ratio compared to PBS control: IHC of contralateral tumors; for increase in CD8^+/Tregs cell ratio compared to PBS control: day 26; for tumor growth on the contralateral side: vaccination with drug-treated dying KPC cells, p<0.05
Procedure: In order to determine whether these in vitro ICD markers actually represent an in vivo immunogenic effect as specified by a consensus ICD document^[26], we also performed a vaccination study in a syngeneic KPC animal model. Suspensions of dying tumor cells, generated by oxaliplatin or DACHPt treatment for 24 h, were subcutaneously injected on 2 occasions (7 days apart) in left flank of immunocompetent B6129SF1/J mice. This was followed by tumor re-challenge on the contralateral side using untreated KPC cells (FIG. 4, panel C).
Moreover, we also validated the ICD effect of DACHPt in a vaccination experiment, using a published protocol^[26]. Briefly, eight million KPC cells were seeded in a tissue culture dish. After cellular attachment, DACHPt or free oxaliplatin (500 μM) were added for 24 h. Cells were collected and washed before being resuspended in 0.8 mL cold PBS. For vaccination, each mouse received subcutaneous injection (SC) of a 100 μL suspension of chemo-treated cells in the right flank. Control animals received PBS only. The vaccination was repeated after 7 days. Fourteen days after the 1st vaccination, the same mice received the SC injection of healthy KPC cells (1×10^6 cells) in the contralateral side. Tumor growth was measured by a digital caliper every 2-3 days. At the conclusion of the vaccination experiment (Day 26), animals were sacrificed and the tumors collected for IHC immunophenotyping of CD8^+ T cells and FoxP3^+ Treg cells. Primary antibodies to CD8 (#14-0808-82, 1:100) and FoxP3 (#13-5773-82, 1:200) were purchased from ThermoFisher. […] The slides were scanned and images were assessed by using Aperio ImageScope software (Leica).

[7] = Pt drug loading of MSNP/silicasome (EE %, LC %) by ICP-MS/ICP-OES; assay type: physicochemical; conditions: DACHPt incubated with bare MSNP, Pt:MSNP 1:5 w/w
Procedure: In various embodiments the silica nanoparticles are loaded with platinum-based drugs using a combination of coordination and electrostatic interactions. Since the silanol group density on the silica nanoparticle surface(s) (e.g., pore surfaces) an important role in the surface binding of the activated platinum compound (e.g., DACHPt) (see FIG. 2), it is desirable to control the pH during drug loading. Thus, the loading efficiency and capacity was optimized through control of. pH, incubation time, the soaking process, and variation of the drug/particle ratio, etc. Thus, for example, 20 mg MSNP resuspend in 1 mL HEPES buffer (0.1 M, pH 8.5) was mixed with DACHPt complex (4 mg Pt, equal to 8 mg OX). The mixture was sonicated in water bath sonication for 10 mins and then spun down at 15 K rpm for 10 mins. Non-bound Pt in the supernatant, as detected by ICP-OES was used to determine the loading capacity [%=(total Pt—Pt in supernatant)/amount of MSNP*100} and loading efficiency [%=(total Pt—Pt in supernatant)/total Pt*100].
Sixty-five nm bare MSNPs were synthesized at 18 L scale and purified by extensive acidic ethanol washing to remove the CTAC detergent, as reported previously^[4b]. In order to determine the optimal loading condition, we experimented with multiple rounds of drug loading to find the optimal pH, incubation time, sonication condition, and particle/drug feed ratio, etc. Details of the protocol optimization appear online (FIG. 8). In the case of DACHPt loading, purified MSNP (20 mg) from ethanol stock solution was spun at 15,000 rpm for 15 min, and resuspend in 1 mL HEPES buffer (200 mM, pH 8.5). The MSNP suspension was spun down and resuspend in 0.5 mL HEPES buffer (200 mM, pH 8.5). Then, 160 μL DACHPt solution (25 mg/mL, e.q. Pt) and 340 μL pure H2O were added to the MNSP suspension (40 mg/mL, 0.5 mL). The mixture was sonicated for 10 min. In a sonication water bath. The DACHPt-laden MSNPs were spun down at 15,000 rpm for 12 min, followed by collecting the supernatant for Pt elemental analysis by ICP-MS. […]

Compound: O=C1[O][Pt]2([NH][C@@H]3CCCC[C@H]3[NH]2)[O]C1=O [oxaliplatin]
- tumor inhibition (primary tumor weight) (orthotopic KPC tumor [1]): ~5%
- cell surface fluorescence of CRT (calreticulin (CRT)): significant increase
- HMGB1 release into the supernatant (HMGB1): increase of released HMGB1
- survival outcome (orthotopic KPC tumor [2]): No obvious benefit
- killing of cells / compromised cell viability (MTS) (KPC cells [3]): 70%
- circulatory half-life (t1/2) [4]: 21 ± 10.2 min
- histology of major organs (liver, spleen, kidney, lung, heart) [5]: No major histological abnormalities
- reduction in cellularity of the hemopoetic cells in the bone marrow [5]: > 50%
- infiltration by CD8^+ T-cells (KPC cells [6]): increase in infiltration
- number of Foxp3^+ regulatory T cell (Treg) (KPC cells [6]): reduced number
- increase in CD8^+/Tregs cell ratio compared to PBS control (KPC cells [6]): 4.8 fold
- tumor growth on the contralateral side (KPC cells [6]): growth retardation

Compound: NC1CCCCC1N.[Pt+2] (stereo not shown) [DACHPt, (1,2-diaminocyclohexane)platinum(II)]
- encapsulation efficiency (EE %) ([7]; neutral pH 7.4): 60%
- encapsulation efficiency (EE %) ([7]; pH 8.5, before lipid coating): ~75%
- encapsulation efficiency (EE %) ([7]; weak acidic pH 5.5): 25%
- cell surface fluorescence of CRT (calreticulin (CRT)): significant increase
- HMGB1 release into the supernatant (HMGB1): increase of released HMGB1
- infiltration by CD8^+ T-cells (KPC cells [6]): increase in infiltration
- number of Foxp3^+ regulatory T cell (Treg) (KPC cells [6]): reduced number
- increase in CD8^+/Tregs cell ratio compared to PBS control (KPC cells [6]): 6 fold
- tumor free mice (out of 6) (KPC cells [6]; vaccination study): 1
- tumor growth on the contralateral side (KPC cells [6]): growth retardation

Source: patent US20230398077A1, “SILICASOME NANOCARRIER FOR METAL-BASED DRUG DELIVERY” (The Regents of the University of California, priority 2020, published 2023)
